{"source": "paper PMC12749748", "about": "“Chemically-induced degradation of the endoplasmic-reticulum stress sensor IRE1 by a VHL-recruiting chimera” (Nature Communications, 2025)", "key": {"PKD1": {"target": "T1, PKD1 (Homo sapiens, UniProt Q15139)", "T1 construct": "endogenous in cells; host or cells: KMS27", "T1 sequence (Q15139 whole entry)": "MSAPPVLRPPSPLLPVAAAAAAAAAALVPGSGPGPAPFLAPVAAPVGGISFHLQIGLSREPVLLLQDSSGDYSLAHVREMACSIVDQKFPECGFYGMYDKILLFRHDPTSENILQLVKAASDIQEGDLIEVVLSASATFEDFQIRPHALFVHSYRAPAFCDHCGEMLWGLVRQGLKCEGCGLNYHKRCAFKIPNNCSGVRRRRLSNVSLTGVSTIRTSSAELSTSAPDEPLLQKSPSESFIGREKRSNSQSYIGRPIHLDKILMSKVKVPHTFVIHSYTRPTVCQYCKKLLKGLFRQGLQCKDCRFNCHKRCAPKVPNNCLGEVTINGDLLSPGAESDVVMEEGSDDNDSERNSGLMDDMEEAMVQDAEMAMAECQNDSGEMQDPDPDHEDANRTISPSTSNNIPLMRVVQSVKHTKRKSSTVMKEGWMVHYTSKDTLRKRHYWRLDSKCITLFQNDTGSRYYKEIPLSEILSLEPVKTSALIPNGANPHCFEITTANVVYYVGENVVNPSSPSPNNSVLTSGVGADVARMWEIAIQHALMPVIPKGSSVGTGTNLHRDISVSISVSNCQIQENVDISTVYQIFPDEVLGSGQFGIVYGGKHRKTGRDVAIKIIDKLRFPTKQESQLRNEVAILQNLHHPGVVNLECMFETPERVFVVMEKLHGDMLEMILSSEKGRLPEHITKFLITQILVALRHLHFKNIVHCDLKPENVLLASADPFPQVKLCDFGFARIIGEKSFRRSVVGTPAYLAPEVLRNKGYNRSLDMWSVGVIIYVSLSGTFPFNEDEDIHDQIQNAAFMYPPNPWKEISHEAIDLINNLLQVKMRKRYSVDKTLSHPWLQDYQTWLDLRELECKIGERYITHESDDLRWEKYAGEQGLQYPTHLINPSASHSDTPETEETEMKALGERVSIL", "assay": "Immunoblot of PKD1 degradation in KMS27 cells", "format": "cell-based", "settings": "N=3", "procedure": "(§1) Cells were lysed in buffer containing 20 mM HEPES 7.2, 150 mM NaCl, and 1% Triton X-100, supplemented with fresh protease and phosphatase inhibitors (Invitrogen, #78440), cleared by centrifugation at 12,000 × g for 10 min, and analyzed by BCA protein assay (Thermo Fisher Scientific, #23227). Equal protein amounts were loaded, separated by SDS-PAGE, electrotransferred to nitrocellulose membranes using the iBLOT2 system (Invitrogen), and blocked in 5% nonfat milk solution for 60 min. Membranes were probed with primary antibodies at 1:1000 dilution in 5% milk at 4 °C overnight. Signal was detected using appropriate horseradish peroxidase (HRP)-conjugated secondary antibodies at 1:10,000 in 5% milk at room temperature for 1–2 h. Bands were visualized by the Azure 600 western blot imaging system (Azure Biosystems). For in vitro ubiquitination assays performed with Me-Ub, bands were visualized by the Odyssey CLx Imager (LI‑COR) after incubating the blots with the IRDye 800CW (LI-COR) secondary antibodies at 1:10,000 in Intercept Blocking Buffer (LI-COR) at room temperature for 1–2 h. […]\n(§2) The kinome selectivity of G6374 was assessed at 1 μM for 1 h versus a panel of 220 human kinases (SelectScreen Kinase Profiling Services, Thermo Fisher Scientific). […]"}, "[1]": {"system": "kinases inhibited by 90% or more", "assay": "Immunoblot of kinases inhibited by 90% or more, for depletion in AMO1 and KMS27 cells", "format": "cell-based", "settings": "AMO1 and KMS27 cells, 0.1, 0.3 and 1 µM, 4 h", "procedure": "as §1, §2"}, "MELK": {"target": "T2, MELK (Homo sapiens, UniProt Q14680)", "T2 construct": "endogenous in cells; host or cells: AMO1", "T2 sequence (Q14680 whole entry)": "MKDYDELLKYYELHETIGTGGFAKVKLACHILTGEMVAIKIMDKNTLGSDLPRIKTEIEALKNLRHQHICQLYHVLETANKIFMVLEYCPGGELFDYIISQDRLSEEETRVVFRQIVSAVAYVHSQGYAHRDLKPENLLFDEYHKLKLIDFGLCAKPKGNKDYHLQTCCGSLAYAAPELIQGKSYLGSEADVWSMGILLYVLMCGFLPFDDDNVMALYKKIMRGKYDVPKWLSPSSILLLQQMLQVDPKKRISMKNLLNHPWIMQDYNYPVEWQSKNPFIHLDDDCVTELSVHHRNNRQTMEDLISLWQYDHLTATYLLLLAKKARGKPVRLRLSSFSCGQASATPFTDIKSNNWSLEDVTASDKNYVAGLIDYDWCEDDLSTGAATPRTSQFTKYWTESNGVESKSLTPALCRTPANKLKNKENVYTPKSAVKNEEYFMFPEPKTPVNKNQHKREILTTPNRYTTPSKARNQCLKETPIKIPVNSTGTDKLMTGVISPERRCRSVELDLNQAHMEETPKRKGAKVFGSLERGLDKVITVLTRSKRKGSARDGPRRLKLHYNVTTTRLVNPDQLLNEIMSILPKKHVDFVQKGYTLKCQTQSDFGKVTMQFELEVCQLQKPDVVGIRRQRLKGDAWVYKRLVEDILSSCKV", "assay": "Immunoblot of MELK depletion in AMO1 cells", "format": "cell-based", "settings": "additional replicates", "procedure": "as §1, §2"}, "[2]": {"system": "panel of 220 human kinases", "assay": "SelectScreen kinase profiling, panel of 220 kinases", "format": "biochemical", "settings": "1 µM, 1 h, besides IRE1", "procedure": "The kinome selectivity of G6374 was assessed at 1 μM for 1 h versus a panel of 220 human kinases (SelectScreen Kinase Profiling Services, Thermo Fisher Scientific). The assays were conducted using either the Z’-LYTE technology to assess inhibition of enzyme activity ([ATP] = Km) or the TR-FRET-based LanthaScreen Eu Kinase Binding assay to assess competitive displacement of an ATP site binding probe. Assay results were normalized to positive and negative controls to determine percent inhibition. Image was created by KNIME Report Designer (KNIME.com AG, Zurich, Switzerland). Kinases for which ATP binding was inhibited by more than 90% were further examined by IB analysis for depletion by G6374 in AMO1 cells (4 h incubation)."}, "human IRE1.KR": {"target": "T3, human IRE1.KR (Homo sapiens, UniProt O75460)", "T3 construct": "Recombinant human IRE1.KR (G547-L977) was purified using an established protocol; His6 (with TEV protease cleavage site) (N, cleaved yes); made in house; host or cells: Sf9", "T3 sequence (O75460 547-977)": "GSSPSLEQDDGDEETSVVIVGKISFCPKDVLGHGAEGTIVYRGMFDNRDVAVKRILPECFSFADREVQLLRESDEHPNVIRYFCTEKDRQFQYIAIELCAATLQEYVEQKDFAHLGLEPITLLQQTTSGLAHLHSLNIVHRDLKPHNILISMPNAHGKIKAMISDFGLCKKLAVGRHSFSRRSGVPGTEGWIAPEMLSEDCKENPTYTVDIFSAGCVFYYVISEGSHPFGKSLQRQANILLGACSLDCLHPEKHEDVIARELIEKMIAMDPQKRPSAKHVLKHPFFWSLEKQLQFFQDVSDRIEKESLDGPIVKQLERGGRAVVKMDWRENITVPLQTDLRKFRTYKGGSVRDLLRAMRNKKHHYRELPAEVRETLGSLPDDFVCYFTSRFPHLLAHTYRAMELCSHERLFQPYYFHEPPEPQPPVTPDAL", "assay": "Surface plasmon resonance, binary interaction with IRE1.KR", "format": "binding", "settings": "SPR, immobilised IRE1.KR, 20 °C, 1 to 1 kinetic model", "procedure": "All SPR experiments in this paper were recorded on a Biacore S200 instrument; all protein captures and data collection were at 20 °C.\nFor binary interactions with G6374: a Xantec SAHC 200 M (streptavidin) chip was inserted into the instrument and primed into running buffer [50 mM HEPES (pH 7.4), 150 mM NaCl, 0.001% Tween 20, 0.2% PEG3350, 0.25 mM TCEP, and 2% DMSO]. Biotinylated human IRE1.KR protein was captured on FC2 to 2-4000 RU, biotinylated VHL in complex with Elongin B (VHL/EloB) was captured on FC4 to 1-2000 RU, data were collected, and all referenced to FC1. Affinity for G6374 was measured using a titration series, injected from low to high with an 8-point, 2-fold dilution dose response with a top concentration of 0.5 μM in both single cycle (single cycle kinetics (SCK)) and multi cycle kinetics (MCK) formats. For MCK experiments, an association time of 45 s and a dissociation time of 200 s with a flow rate of 50 μL/min. For SCK experiments, an association time of 45 s and a dissociation time of 2000 s with a flow rate of 50 μL/min were used. All data were analyzed using Insight software (Cytiva) using a 1 to 1 kinetic binding model."}}, "note": "pKd: −log10 of the molar value."}
{"smiles": "Cc1ncsc1-c1ccc(CNC(=O)[C@@H]2C[C@@H](O)CN2C(=O)[C@@H](NC(=O)CCCCN2CCN([C@H]3CC[C@H](Nc4ncc5ccc(=O)n(C(C)C)c5n4)CC3)CC2)C(C)(C)C)cc1", "note": "[G6374]", "values": [{"measurement": "degradation of PKD1", "setting": "PKD1", "value": "no"}, {"measurement": "depletion of the other eight kinases (JNK3 not detectable)", "setting": "[1]", "value": "not appreciably depleted"}, {"measurement": "depletion of MELK", "setting": "MELK", "value": "MELK is not depleted"}, {"measurement": "number of other kinases inhibited by >90%", "setting": "[2]", "value": 9}, {"measurement": "pKd", "setting": "human IRE1.KR", "value": 9.25}, {"measurement": "kd", "setting": "human IRE1.KR", "value": 0.0025, "unit": "s⁻¹"}, {"measurement": "kon", "setting": "human IRE1.KR; read-out: ka", "value": "4.95e+06", "unit": "M⁻¹ s⁻¹"}]}
